Holding throughout (assay): growth of human tumour cells (NCI), 48 h
In assay [1] the test system is 786-0 renal.
The test system of assay [2] is BT-549 breast.
Assay [3] relates to COLO 205 colon.
Assay [4] relates to KM12 colon.
Assay [5] has as its system RPMI-8226 leukemia.
Assay [6] deals with RXF 393 renal.
The test system of assay [7] is SF-295 CNS.
Assay [8] concerns SNB-19 CNS.
The subject of assay [9] is U251 CNS.
Assay [10] concerns UO-31 renal.

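Protocol summary: plate cells (96-well), add compound at 5 concentrations, incubate 48 h, interpolate endpoints linearly. GI50: concentration for 50% inhibition of growth. TGI denotes the concentration required for complete inhibition of growth.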

Regarding `CCCCOc1ccc(/C=N/Nc2cc(C)nc3ccc(Cl)cc23)cc1`, the GI50 in assay [1] is 2 µM; in assay [2], 1.76 µM; in assay [3], 2.01 µM; in [4] it was 1.93 µM; in assay [5] it was 1.92 µM; in [6] it was 1.41 µM. Further, the GI50 in [7] was 1.66 µM; in assay [8], 1.81 µM; in [9], 1.72 µM; in assay [10], 1.56 µM. The TGI in [1] was 3.76 µM; in assay [2], 3.43 µM; in assay [3] it was 4.03 µM; in assay [4] it was 3.87 µM; in assay [5] it was 4.53 µM; in assay [6], 2.74 µM. Moreover, the TGI in assay [7] was determined as 3.1 µM; in assay [8], 3.3 µM; in assay [9], 3.19 µM; in assay [10], 2.93 µM.

With `Cn1ncc(-c2ccc3c(=O)[nH]nc(CN)c3c2)c1-c1c(F)cc2ccccc2c1C#N`, the GI50 is 5.21 µM in [1]; 7.15 µM in [2]; 4.8 µM in assay [3]; 5 µM in assay [4]; 4.78 µM in assay [5]; 4.6 µM in assay [6]. The GI50 in assay [7] is 11.7 µM; in [8], 9.44 µM; in assay [9], 5.36 µM; in assay [10] it was 7.62 µM. In addition, the TGI was determined as 18.9 µM in assay [1]; 20.2 µM in assay [2]; 18.3 µM in assay [3]; 17.4 µM in assay [4]; 27.4 µM in assay [5]; 16.6 µM in [6]. Further, the TGI in [7] came to 24.6 µM; in [8], 24.1 µM; in assay [9], 17.9 µM; in assay [10] it was 20.6 µM.

As for `Oc1c(CN2CCOCC2)cc(COCc2ccccc2)c2cccnc12`, the GI50 was 2.67 µM in [1]; 3.19 µM in [2]; 16 µM in [3]; 3.73 µM in assay [4]; 4.06 µM in assay [5]; 3.25 µM in assay [6]. Moreover, the GI50 in assay [7] was 3.68 µM; in assay [8], 4.28 µM; in assay [9], 2.77 µM; in [10] it was 0.351 µM. The TGI in assay [1] was 19.2 µM; in assay [2], 81.8 µM; in assay [3], 67.2 µM; in assay [4] it was over 100 µM; in [5], over 100 µM; in [6], 72.7 µM. The TGI in assay [7] is 30.6 µM; in [8] it was over 100 µM; in assay [9] it was over 100 µM; in [10], 9.36 µM.

As for `Oc1ccc(Cl)cc1-c1cc(-c2ccc(F)cc2)n[nH]1`, the GI50 was 1.82 µM in assay [1]; 3.59 µM in assay [2]; 2.08 µM in [3]; 1.01 µM in [4]; 1.36 µM in assay [5]; 2.83 µM in assay [6]. Besides, the GI50 was 2.16 µM in assay [7], 2.27 µM in [8], 2.1 µM in assay [9] and 1.21 µM in assay [10]. Besides, the TGI in assay [1] was determined as 3.41 µM; in assay [2] it was 16.6 µM; in assay [3], 4.85 µM; in [4], 2.54 µM; in [5], 4.58 µM; in [6], 7.82 µM. Also, the TGI was determined as 5.24 µM in assay [7], 8.27 µM in assay [8], 5 µM in [9] and 3.78 µM in assay [10].

For `COc1cccc(C2=C(c3cn(C)c4cccc(OC)c34)C(=O)NC2=O)c1`, the GI50 in [1] is 17.9 µM; in assay [2], 12.9 µM; in assay [3], 6.48 µM; in assay [4], 6.01 µM; in assay [5] it was 9.09 µM; in assay [6] it was 5.03 µM. Also, the GI50 is 7.05 µM in [7], over 25 µM in assay [8], 11.5 µM in [9] and 17.9 µM in [10]. The TGI was over 25 µM in assay [1]; over 25 µM in [2]; over 20.3 µM in [3]; over 25 µM in assay [4]; over 24.1 µM in [5]; over 19 µM in [6]. Further, the TGI in assay [7], in assay [8], in [9] and in assay [10] was over 25 µM in each case.

With `O=c1c2c3c(sc2n2c(-c4ccc(Br)cc4)nnc2n1Cc1ccccc1)CCCC3`, the GI50 in [1] is 3.96 µM; in assay [2], 6.04 µM; in assay [3] it was 8.24 µM; in [4], 10.2 µM; in assay [5], 3.85 µM; in [7], 2.42 µM. Besides, the GI50 is 8.12 µM in assay [8], 6.89 µM in [9] and 11.3 µM in [10]. Also, the TGI in [1] came to 14.6 µM; in [2] it was 19.8 µM; in assay [3] it was 22.8 µM; in [4], 24.7 µM; in [5], 25.4 µM; in [7], 7.51 µM. In addition, the TGI in [8] is 20.7 µM; in assay [9], 19.7 µM; in assay [10] it was 41.1 µM.

As to `Cc1ccc2c(c1)C(=O)c1c-2n(CCCN=[N+]=[N-])c(=O)c2cc([N+](=O)[O-])ccc12`, the GI50 was 29.8 µM in assay [1]; over 100 µM in [2]; over 100 µM in assay [3]; 83 µM in assay [4]; 21.3 µM in assay [5]; over 100 µM in assay [6]. The GI50 is over 100 µM in [7], over 100 µM in assay [8] and 69 µM in [10]. Also, the TGI in assay [1], in [2], in assay [3], in assay [4], in [5] and in [6] was over 100 µM each time. The TGI in [7], in [8] and in [10] was over 100 µM in each case.

As to `CCCn1c(N)c(C(=O)CNc2ccc(I)cc2)c(=O)[nH]c1=O`, the GI50 in assay [1] is 4.21 µM; in assay [2] it was over 64.4 µM; in assay [5] it was 0.51 µM; in [6] it was 21.5 µM; in assay [7] it was 0.795 µM; in assay [8] it was 2.02 µM. The GI50 in assay [9] is 0.761 µM. Besides, the TGI was over 100 µM in [1]; over 100 µM in [2]; over 100 µM in [3]; over 100 µM in assay [5]; over 100 µM in assay [6]; over 63.6 µM in [7]. Moreover, the figures for the TGI in [8], in [9] and in assay [10] were over 59.5 µM, over 48.9 µM and over 100 µM, respectively.

In the case of `O=C(c1ccccc1)C1C(C(=O)c2ccccc2)C(c2ccccc2)N(c2ccccc2)C1c1ccccc1` (stereo not drawn), the TGI in assay [1], in assay [2], in assay [3], in [5], in assay [6] and in assay [7] was over 100 µM each time. The TGI in assay [8], in [9] and in assay [10] was over 100 µM in each case.

As to `COc1cc(-c2nn(-c3ccc(NC(=O)c4cc(Cl)cc(Cl)c4)cc3)cc2-c2ccncc2)ccc1Cl`, the GI50 in [1] was 1.97 µM; in assay [2], over 100 µM; in assay [3], 6.61 µM; in assay [4], 3.27 µM; in assay [6] it was 2.14 µM; in [8], over 100 µM. Besides, the GI50 was 6.23 µM in assay [9] and 6.86 µM in assay [10]. In addition, the TGI in assay [1] was 7.66 µM; in assay [2] it was over 100 µM; in assay [3] it was over 100 µM; in assay [4] it was over 100 µM; in [6] it was over 100 µM; in assay [8] it was over 100 µM. Besides, the TGI in assay [9] and in assay [10] was over 100 µM throughout.

For the compound `Cc1nnc(-c2ccc(-c3nc4ccccc4o3)cc2)o1`, the GI50 in assay [1] is over 100 µM; in assay [2], 65.5 µM; in assay [3], 76.8 µM; in assay [4] it was 43.3 µM; in [5], over 100 µM; in assay [7] it was 40.1 µM. The GI50 is 20.7 µM in assay [8], 16.4 µM in assay [9] and over 100 µM in [10]. Besides, the TGI in assay [1], in assay [2], in [3], in [4], in assay [5] and in assay [7] was over 100 µM throughout. The TGI in assay [8] was 43.1 µM; in assay [9] it was 34.8 µM; in [10], over 100 µM.

As to `CN1CCN(CCOc2ccc(-c3cnc4c(-c5ccc(F)cc5)cnn4c3)cc2)CC1`, the GI50 is 1.73 µM in [1]; 2.68 µM in [2]; 1.06 µM in [4]; 1.67 µM in [5]; 1.65 µM in [6]; 1.73 µM in assay [7]. Also, the values for the GI50 in [8], in [9] and in assay [10] were 1.66 µM, 1.39 µM and 1.31 µM, respectively. In addition, the TGI in assay [1] is 3.2 µM; in assay [2], 9.44 µM; in [4], 2.36 µM; in assay [5] it was 4.67 µM; in [6] it was 3.27 µM; in assay [7] it was 3.23 µM. Also, the TGI in assay [8] amounted to 3.39 µM; in [9], 2.94 µM; in assay [10] it was 2.93 µM.

Source of the values: PubChem BioAssay (NCI).
